Measurements published in PubChem BioAssay AID1259408 (Genetic Toxicology Data Bank (GENE-TOX), 2018).
Active and inactive are the calls of the source. How the calls were made is not given here.

Test system: GENE-TOX genotoxicity assays, various organisms and cells
Test: GENE-TOX mutagenicity studies
Conditions: for call: Assay Type: In vivo carcinogenicity studies
[1] = Species/Cell Type: Syrian hamster embryo (SA7/SHE) cells, Assay Type: Cell transformation, viral enhanced, Assay Code: CT7+, Evaluation Type: Evaluation A (Pre-1980)
[2] = Species/Cell Type: Drosophila melanogaster, Assay Type: Sex-linked recessive lethal gene mutation, Assay Code: SRLT, Evaluation Type: Evaluation A (Pre-1980)
[3] = Species/Cell Type: Nonhuman, Assay Code: CCG+L, Evaluation Type: Evaluation A (Pre-1980)
[4] = Species/Cell Type: Salmonella typhimurium (one or more of the five standard strains: TA98, TA100, TA1535, TA1537, and TA1538), Assay Type: Histidine reverse gene mutation, Ames assay, Assay Code: SALT, Evaluation Type: Evaluation A (Pre-1980)
[5] = Species/Cell Type: Saccharomyces cerevisiae, Assay Type: Mitotic recombination or gene conversion, Assay Code: YEC+, Evaluation Type: Evaluation A (Pre-1980)
[6] = Species/Cell Type: Nonhuman, Assay Type: Sister-chromatid exchange (SCE) in vitro, Assay Code: SC2-, Evaluation Type: Evaluation B (Post-1980)
[7] = Species/Cell Type: Nonhuman, Assay Code: CCG+, Evaluation Type: Evaluation A (Pre-1980)
[8] = Species/Cell Type: Salmonella typhimurium (one or more of the five standard strains: TA98, TA100, TA1535, TA1537, and TA1538), Assay Type: Histidine reverse gene mutation, Ames assay, Assay Code: SAL+, Evaluation Type: Evaluation A (Pre-1980)
[9] = Species/Cell Type: Mammalian polychromatic erythrocytes, Assay Type: Micronucleus test, chromosome aberrations, Assay Code: MNT+, Evaluation Type: Evaluation B (Post-1980)
[10] = Species/Cell Type: Mammalian polychromatic erythrocytes, Assay Type: Micronucleus test, chromosome aberrations, Assay Code: MNTT, Evaluation Type: Evaluation A (Pre-1980)
[11] = Species/Cell Type: Human lymphocytes, Assay Type: Sister-chromatid exchange (SCE) in vitro, Assay Code: SCL+D, Dose Response: With dose response, Evaluation Type: Evaluation B (Post-1980)
[12] = Species/Cell Type: Human, Assay Type: Sister-chromatid exchange (SCE) in vitro, Assay Code: SC1+D, Dose Response: With dose response, Evaluation Type: Evaluation B (Post-1980)
[13] = Species/Cell Type: Nonhuman, Assay Type: Sister-chromatid exchange (SCE) in vitro, Assay Code: SC2+D, Dose Response: With dose response, Evaluation Type: Evaluation B (Post-1980)
[14] = Species/Cell Type: Human lymphocytes or leukocytes, Assay Type: Chromosome aberrations in vitro, Assay Code: CY7+, Evaluation Type: Evaluation A (Pre-1980)
[15] = Species/Cell Type: Mouse, Sex: Male, Assay Type: Sperm morphology, Assay Code: SPI+, Evaluation Type: Evaluation A (Pre-1980)
[16] = Species/Cell Type: Nonhuman, Assay Type: Sister-chromatid exchange (SCE) in vivo, Assay Code: SC3+D, Dose Response: With dose response, Evaluation Type: Evaluation B (Post-1980)

Q: How did the mutagenic call [1] turn out when `CC(=O)[O-].[Tl+]` was run?
A: active; positive

Q: With `Cc1ccccc1S(N)(=O)=O` as the molecule, how does the mutagenic call [2] read?
A: no conclusion

Q: And the mutagenic call (Species/Cell Type: Mammalian polychromatic erythrocytes, Assay Type: Micronucleus test, chromosome aberrations, Assay Code: MNTT, Evaluation Type: Evaluation B (Post-1980))?
A: no conclusion

Q: What about the mutagenic call (Species/Cell Type: Salmonella typhimurium (one or more of the five standard strains: TA98, TA100, TA1535, TA1537, and TA1538), Assay Type: Histidine reverse gene mutation, Ames assay, Assay Code: SAL-, Evaluation Type: Evaluation A (Pre-1980)) of the same molecule?
A: inactive; negative

Q: What does the source list for `Cc1ccc2cc3c(ccc4ccccc43)c3c2c1C(O)C3` (stereo not drawn)?
A: mutagenic call (Species/Cell Type: Chinese hamster lung (V79) cells, Assay Type: Forward gene mutation at the HPRT or ouabain locus, Assay Code: V79+, Evaluation Type: Evaluation A (Pre-1980)): active; positive; call [3]: active; positive; mutagenic call [4]: no conclusion

Q: `Nc1nc(=O)n([C@H]2C[C@H](O)[C@@H](CO)O2)cc1Br` was tested. Which mutagenic call (Species/Cell Type: Arabidopsis species, Assay Type: Gene mutation, Assay Code: ARM+, Evaluation Type: Evaluation A (Pre-1980)) did it give?
A: active; positive

Q: What about the mutagenic call [2] of the same molecule?
A: no conclusion

Q: What about the mutagenic call (Species/Cell Type: Human lymphocytes, Assay Type: Sister-chromatid exchange (SCE) in vitro, Assay Code: SCLT, Evaluation Type: Evaluation B (Post-1980)) of the same molecule?
A: no conclusion

Q: What about the mutagenic call (Species/Cell Type: Human, Assay Type: Sister-chromatid exchange (SCE) in vitro, Assay Code: SC1T, Evaluation Type: Evaluation B (Post-1980)) of the same molecule?
A: no conclusion

Q: What about the mutagenic call [1] of the same molecule?
A: active; positive

Q: Which mutagenic call (Species/Cell Type: Drosophila melanogaster, Assay Type: Sex-linked recessive lethal gene mutation, Assay Code: SRL+, Evaluation Type: Evaluation A (Pre-1980)) does the source give for `CCOC(=O)c1ccc(N=NN(C)C)cc1` here?
A: active; positive

Q: What about the mutagenic call [5] of the same molecule?
A: active; positive

Q: With `[Cl][Sn][Cl]` as the molecule, how does the mutagenic call (Species/Cell Type: Bacillus subtilis (H17 vs M45), Assay Type: Rec-assay, spot test, DNA effects (bacterial DNA repair), Assay Code: REW-, Evaluation Type: Evaluation A (Pre-1980)) read?
A: inactive; negative

Q: And the mutagenic call (Species/Cell Type: Escherichia coli WP2 UVRA, Assay Type: Tryptophan reverse gene mutation, Assay Code: WPU-*, Activation: With metabolic activation, Evaluation Type: Evaluation A (Pre-1980))?
A: inactive; negative

Q: And the call (Species/Cell Type: Nonhuman, Assay Code: CCG-L, Evaluation Type: Evaluation A (Pre-1980))?
A: inactive; negative

Q: What about the mutagenic call [6] of the same molecule?
A: inactive; negative

Q: `CCN(C)N=O` was tested. Which call [7] did it give?
A: active; positive

Q: And the mutagenic call [4]?
A: no conclusion

Q: `C=C1C(=O)O[C@@H]2C[C@@H](C)[C@@H]3C[C@H](O)O[C@@H](O)[C@@]3(C)C[C@H]12` was tested. Which mutagenic call [8] did it give?
A: active; positive

Q: Which mutagenic call [4] does the source give for `O=[N+]([O-])c1cnc[nH]1` here?
A: no conclusion

Q: How did the mutagenic call [9] turn out when `NC(=S)c1ccccc1` was run?
A: active; positive

Q: For `O=C1CCCO1`, which mutagenic call [10] is on record?
A: no conclusion

Q: What about the mutagenic call (Species/Cell Type: Mouse, Sex: Male, Assay Type: Sperm morphology, Assay Code: SPI-, Evaluation Type: Evaluation A (Pre-1980)) of the same molecule?
A: inactive; negative

Q: What about the mutagenic call (Species/Cell Type: Nonhuman, Assay Type: Sister-chromatid exchange (SCE) in vitro, Assay Code: SC2+, Evaluation Type: Evaluation B (Post-1980)) of the same molecule?
A: active; positive

Q: Which mutagenic call (Species/Cell Type: Saccharomyces cerevisiae, Assay Type: Reverse gene mutation, Assay Code: YERT, Evaluation Type: Evaluation A (Pre-1980)) does the source give for `CCOC(=O)COc1ccc(Cl)cc1CSC(=N)N` here?
A: no conclusion

Q: `CCCCN(CCCC(=O)NCC(=O)O)N=O` was tested. Which mutagenic call [4] did it give?
A: no conclusion

Q: Which results are given for `CC(=O)ON(C(C)=O)c1ccc(/C=C/c2ccccc2)cc1`?
A: mutagenic call [5]: active; positive; mutagenic call (Species/Cell Type: Saccharomyces cerevisiae, Assay Type: Mitotic recombination or gene conversion, Assay Code: YEH+, Evaluation Type: Evaluation A (Pre-1980)): active; positive; mutagenic call (Species/Cell Type: Saccharomyces cerevisiae, Assay Type: Reverse gene mutation, Assay Code: YER+, Evaluation Type: Evaluation A (Pre-1980)): active; positive

Q: For `CC(C)Nc1cccc2c1C(=O)c1ccccc1C2=O`, which mutagenic call (Species/Cell Type: Salmonella typhimurium (one or more of the five standard strains: TA98, TA100, TA1535, TA1537, and TA1538), Assay Type: Histidine reverse gene mutation, Ames assay, Assay Code: SAL+*, Activation: With metabolic activation, Evaluation Type: Evaluation A (Pre-1980)) is on record?
A: active; positive

Q: How did the mutagenic call [2] turn out when `CCS(=O)CCSP(=O)(OC)OC` (stereo not drawn) was run?
A: no conclusion

Q: And the mutagenic call [11]?
A: active; positive

Q: And the mutagenic call [12]?
A: active; positive

Q: And the mutagenic call [9]?
A: active; positive

Q: And the mutagenic call [13]?
A: active; positive

Q: What about the mutagenic call [5] of the same molecule?
A: active; positive

Q: With `C=Cc1cc(C)cc(C)c1` as the molecule, how does the mutagenic call [11] read?
A: active; positive

Q: What about the mutagenic call [12] of the same molecule?
A: active; positive

Q: `O[As](O)O` was tested. Which mutagenic call (Species/Cell Type: Escherichia coli WP2, Assay Type: Tryptophan reverse gene mutation, Assay Code: WP2-, Evaluation Type: Evaluation A (Pre-1980)) did it give?
A: inactive; negative

Q: And the mutagenic call [14]?
A: active; positive

Q: For `CCCC(=O)Nc1ccc(OCC(O)CNC(C)C)c(C(C)=O)c1` (stereo not drawn), which mutagenic call [9] is on record?
A: active; positive

Q: With `CCCCSP(=O)(SCCCC)SCCCC` as the molecule, how does the mutagenic call [6] read?
A: inactive; negative

Q: For `CNc1ccc(C(=C2C=CC(=[N+](C)C)C=C2)c2ccc(N(C)C)cc2)cc1`, which mutagenic call (Species/Cell Type: Saccharomyces cerevisiae, Assay Type: Reverse gene mutation, Assay Code: YER-, Evaluation Type: Evaluation A (Pre-1980)) is on record?
A: inactive; negative

Q: With `COC1=CC(=O)C[C@@H](C)[C@]12Oc1c(Cl)c(OC)cc(OC)c1C2=O` as the molecule, how does the mutagenic call (Species/Cell Type: Allium cepa, Assay Type: Chromosome aberrations, Assay Code: ALC+, Evaluation Type: Evaluation A (Pre-1980)) read?
A: active; positive

Q: What about the mutagenic call (Species/Cell Type: Aspergillus nidulans, Assay Type: Aneuploidy, chromosome aberrations, Assay Code: ASN+, Evaluation Type: Evaluation A (Pre-1980)) of the same molecule?
A: active; positive

Q: And the mutagenic call (Species/Cell Type: Aspergillus nidulans, Assay Type: Mitotic recombination, Assay Code: ASGT, Evaluation Type: Evaluation A (Pre-1980))?
A: no conclusion

Q: And the mutagenic call (Species/Cell Type: Bacillus subtilis (H17 vs M45), Assay Type: Rec-assay, spot test, DNA effects (bacterial DNA repair), Assay Code: REWT, Evaluation Type: Evaluation A (Pre-1980))?
A: no conclusion

Q: What about the mutagenic call (Species/Cell Type: Escherichia coli polA (W3119 vs P3478), Assay Type: Rec-assay, DNA effects (bacterial DNA repair), Assay Code: RE1T, Evaluation Type: Evaluation A (Pre-1980)) of the same molecule?
A: no conclusion

Q: What about the mutagenic call [10] of the same molecule?
A: no conclusion

Q: And the mutagenic call [15]?
A: active; positive

Q: And the call [3]?
A: active; positive

Q: And the mutagenic call [16]?
A: active; positive

Q: What about the mutagenic call (Species/Cell Type: Saccharomyces cerevisiae, Assay Type: Mitotic recombination or gene conversion, Assay Code: YEH-, Evaluation Type: Evaluation A (Pre-1980)) of the same molecule?
A: inactive; negative

Q: And the mutagenic call [4]?
A: no conclusion

Q: `CCC=O` was tested. Which mutagenic call (Species/Cell Type: Human lymphocytes, Assay Type: Sister-chromatid exchange (SCE) in vitro, Assay Code: SCL+, Evaluation Type: Evaluation B (Post-1980)) did it give?
A: active; positive

Q: What about the mutagenic call (Species/Cell Type: Human, Assay Type: Sister-chromatid exchange (SCE) in vitro, Assay Code: SC1+, Evaluation Type: Evaluation B (Post-1980)) of the same molecule?
A: active; positive

Q: With `CCOC(=O)N(CCOC(C)=O)N=O` as the molecule, how does the mutagenic call [8] read?
A: active; positive

Q: `c1ccccc1` was tested. Which mutagenic call [14] did it give?
A: active; positive

Q: What about the mutagenic call (Species/Cell Type: Human lymphocytes or leukocytes, Assay Type: Chromosome aberrations in vivo, Assay Code: CY8+, Evaluation Type: Evaluation A (Pre-1980)) of the same molecule?
A: active; positive

Q: What about the mutagenic call (Species/Cell Type: Human lymphocytes, Assay Type: Sister-chromatid exchange (SCE) in vitro, Assay Code: SCL+*, Activation: With metabolic activation, Evaluation Type: Evaluation B (Post-1980)) of the same molecule?
A: active; positive

Q: What about the mutagenic call (Species/Cell Type: Human lymphocytes, Assay Type: Sister-chromatid exchange (SCE) in vitro, Assay Code: SCL-, Evaluation Type: Evaluation A (Pre-1980)) of the same molecule?
A: inactive; negative

Q: What about the mutagenic call (Species/Cell Type: Human lymphocytes, Assay Type: Sister-chromatid exchange (SCE) in vivo, Assay Code: SCY+, Evaluation Type: Evaluation B (Post-1980)) of the same molecule?
A: active; positive

Q: And the mutagenic call (Species/Cell Type: Human, Assay Type: Sister-chromatid exchange (SCE) in vitro, Assay Code: SC1+*, Activation: With metabolic activation, Evaluation Type: Evaluation B (Post-1980))?
A: active; positive

Q: And the mutagenic call (Species/Cell Type: Human, Assay Type: Sister-chromatid exchange (SCE) in vitro, Assay Code: SC1-, Evaluation Type: Evaluation A (Pre-1980))?
A: inactive; negative

Q: And the mutagenic call (Species/Cell Type: Mammalian polychromatic erythrocytes, Assay Type: Micronucleus test, chromosome aberrations, Assay Code: MNT+, Evaluation Type: Evaluation A (Pre-1980))?
A: active; positive

Q: And the mutagenic call [15]?
A: active; positive

Q: What about the call [7] of the same molecule?
A: active; positive

Q: And the mutagenic call [13]?
A: active; positive

Q: And the mutagenic call [16]?
A: active; positive

Q: What about the mutagenic call (Species/Cell Type: Syrian hamster embryo (SA7/SHE) cells, Assay Type: Cell transformation, viral enhanced, Assay Code: CT7-, Evaluation Type: Evaluation A (Pre-1980)) of the same molecule?
A: inactive; negative

Q: What about the mutagenic call (Species/Cell Type: Tradescantia species, Assay Type: Gene mutation, Assay Code: TRM+D, Dose Response: With dose response, Evaluation Type: Evaluation A (Pre-1980)) of the same molecule?
A: active; positive
